For 10 compounds, pest or weed control and mortality results are on record in US4962109A, “Insecticidally and acaricidally active pyrimidine esters and intermediates therefor” (Imperial Chemical Industries PLC, priority 1985, dated 1990).

Each structure is given as a SMILES string. Where only a bound is given, the exact number is not on record here.

Holding throughout (type): in vivo
Assay [1] concerns Musca domestica (houseflies - adults). Put plainly: Knockdown test on houseflies - adults (MD/KD), Cotton wool/sugar. The following applies: 500 ppm, 4 hours, read-out: MD/KD grading of knockdown. On the procedure:
(§1) The activity of the Product was determined using a variety of insect pests. The Product was used in the form of liquid preparations containing 500, 250 or 100 parts per million (ppm) by weight of the Product. The preparations were made by dissolving the Product in acetone and diluting the solutions with water containing 0.01% by weight of a wetting agent sold under the trade name "LISSAPOL" NX until the liquid preparations contained the required concentration of the Product. "Lissapol" is a Registered Trade Mark.
(§2) The test procedure adopted with regard to each pest was basically the same and comprised supporting a number of the pests on a medium which was usually a host plant or a foodstuff on which the pests feed, and treating either or both the pests and the medium with the preparations. The mortality of the pests was then assessed at periods usually varying from one to three days after the treatment.
In the case of the species Musca domestica (housefly), additional tests to determine the knockdown effect of the compounds were performed. PG,163
(§3) The results of the tests are given in Table III for each of the Products, at the rate in parts per million given in the second column as a grading of mortality designated as A, B or C wherein A indicates 80-100% mortality or knockdown, B indicates 50-79% mortality or knockdown and C indicates less than 50% mortality or knockdown.

Assay [2] has as its system Nephotettix cincticeps (green leaf hopper - nymphs). Put plainly: Contact test on green leaf hopper nymphs (NC), Rice plant, mortality. The following applies: 48 h, 500 ppm, contact, 2 days, read-out: NC grading of mortality. How it is done:
as §1, §2, §3
NC Nephotettix cincticeps

Assay [3] has as its system Blattella germanica (cockroach nymphs). The assay is described as follows: Contact test on cockroach nymphs (BG/C), Plastic pot, mortality. The following applies: 48 h, 500 ppm, contact, 2 days, read-out: BG/C grading of mortality. On the procedure: as §1, §2, §3
BG/C Blattella germanica

Assay [4] deals with Musca domestica (houseflies - adults). The assay is described as follows: Contact test on houseflies - adults (MD), Cotton wool/sugar, mortality. The settings on record: 72 h, 500 ppm, contact, 3 days, read-out: MD grading of mortality. On the procedure: as §1, §2, §3
The test system of assay [5] is Spodoptera exigua (lesser army worm - larvae). The assay is described as follows: Residual test on lesser army worm larvae (SP), Cotton leaf, mortality. The following applies: 48 h, 500 ppm, residual, 2 days, read-out: SP grading of mortality. On the procedure:
as §1, §2, §3
(lesser army worm - larvae)

In assay [6] the test system is Tetranychus urticae (spider mites - adult). The assay is described as follows: Contact test on spider mites - adult (TUa), French bean leaf, mortality. The following applies: 72 h, 500 ppm, contact, 3 days, read-out: TUa grading of mortality. On the procedure: as §1, §2, §3
In assay [7] the test system is Diabrotica balteata (rootworm larvae). Put plainly: Residual test on rootworm larvae (DB), Filter paper/maize seed, mortality. The following applies: 48 h, 500 ppm, residual, 2 days, read-out: DB grading of mortality. How it is done: as §1, §2, §3
For the next assay, the system named is Myzus persicae (aphids). Put plainly: Contact test on aphids (MP), Chinese Cabbage leaf, mortality. The settings on record: 72 h, 500 ppm, contact, 3 days, read-out: MP grading of mortality. On the procedure: as §1, §2, §3
Assay [8] has as its system Tetranychus urticae (spider mites - ova). Put plainly: Contact test on spider mites - ova (TUe), French bean leaf, mortality. The following applies: 144 h, 500 ppm, contact, 6 days, read-out: TUe grading of mortality. How it is done: as §1, §2, §3
Assay [9] deals with Heliothis virescens (tobacco budworm - larvae). The assay is described as follows: Residual test on tobacco budworm larvae (HV), Cotton leaf, mortality. The settings on record: 48 h, read-out: HV grading of mortality. How it is done:
as §1, §2, §3
(tobacco budworm - larvae)

Turning to `CSc1c(F)c(F)c(COC(=O)C(c2cnc(C(C)(C)C)nc2)C(C)(C)C)c(F)c1F` (racemic) [Compound 183], in assay [1], the pest or weed control at 500 ppm is 80 to 100%. In addition, the mortality at 500 ppm in assay [2] is 80 to 100%; in assay [3], < 50%; in assay [4], 80 to 100%; in assay [5], 80 to 100%; in assay [6], 80 to 100%; in [7], < 50%. Also, the mortality at 500 ppm in the assay on Myzus persicae (aphids) is < 50%; in [8], < 50%; in [9], 80 to 100%.
Consider `CC(C)(C)OC(=O)COCc1c(F)c(F)c(COC(=O)C(c2cnc(C(C)(C)C)nc2)C(C)(C)C)c(F)c1F` (racemic) [Compound 165, 4-[(1,1-dimethylethyl)oxycarbonylmethoxymethyl]-2,3,5,6-tetrafluorobenzyl (RS)-2-[2-(1,1-dimethylethyl]pyrimidin-5-yl]-3,3-dimethylbutanoate], for which the pest or weed control at 500 ppm in assay [1] is < 50%. The mortality at 500 ppm in assay [2] was 50 to 79%; in assay [3] it was < 50%; in assay [4] it was < 50%; in [5], < 50%; in assay [6], < 50%; in [7], < 50%. Besides, the mortality at 500 ppm (in the assay on Myzus persicae (aphids); in assay [8]; in [9]) was < 50% each time.
Take `CC(C)C(=O)OCc1c(F)c(F)c(COC(=O)C(c2cnc(C(C)(C)C)nc2)C(C)(C)C)c(F)c1F` (racemic) [Compound 173, 4-[(2-methylpropionyl)oxymethyl]-2,3,5,6-tetrafluorobenzyl (RS)-2-[2-(1,1-dimethylethyl)pyrimidin-5-yl]-3,3-dimethylbutanoate]: the pest or weed control at 500 ppm in [1] was < 50%. Further, the mortality at 500 ppm in assay [2] was 80 to 100%; in assay [3], < 50%; in assay [4] it was < 50%; in assay [5] it was 80 to 100%; in assay [6] it was 80 to 100%; in assay [7], < 50%. Moreover, the mortality at 500 ppm with Myzus persicae (aphids) is 80 to 100%; in [8], < 50%; in assay [9] it was 80 to 100%.
Regarding `CCC(C)(C)c1ncc(C(C(=O)OCc2c(F)c(F)c(COC)c(F)c2F)C(C)(C)C)cn1` (racemic) [Compound 61, 2,3,5,6-tetrafluoro-4-(methoxymethyl)benzyl (RS)-2-[2-(1,1-dimethylpropyl)pyrimidin-5-yl]-3,3-dimethylbutanoate], in assay [1], the pest or weed control at 500 ppm was 80 to 100%. Also, the mortality at 500 ppm in [2] was 80 to 100%; in assay [3], < 50%; in assay [4] it was 80 to 100%; in assay [5], 80 to 100%; in [6], 80 to 100%; in assay [7], < 50%. Further, the mortality at 500 ppm in the assay with Myzus persicae (aphids) was 80 to 100%; in assay [8] it was < 50%; in [9] it was < 50%.
As to `CC(C)(C)C(C(=O)OCc1ccc(F)c(Oc2ccccc2)c1)c1cnc(-c2ccccc2Cl)nc1` (racemic) [Compound 209, 4-fluoro-3-phenoxybenzyl (RS)-2-[2-(2-chlorophenyl)pyrimidin-5-yl]-3,3-dimethylbutanoate], the pest or weed control at 500 ppm in [1] is < 50%. Besides, the mortality at 500 ppm was < 50% in assay [2]; < 50% in assay [3]; < 50% in assay [4]; 50 to 79% in [5]; 80 to 100% in [6]; < 50% in [7]. Besides, the mortality at 500 ppm with Myzus persicae (aphids) was 50 to 79%; in assay [8], < 50%; in assay [9], 80 to 100%.
Consider `CC(C)(C)c1ncc(C(C(=O)OCc2c(F)c(F)c(COc3ccccc3)c(F)c2F)C(C)(C)C)cn1` (racemic) [Compound 192, 2,3,5,6-tetrafluoro-4-(phenoxymethyl)benzyl (RS)-2-[2-(1,1-dimethylethyl)pyrimidin-5-yl]-3,3-dimethylbutanoate], for which the pest or weed control at 500 ppm in [1] is < 50%. Also, the mortality at 500 ppm was < 50% in [2]; < 50% in [3]; < 50% in [4]; 80 to 100% in assay [5]; 80 to 100% in assay [6]; < 50% in [7]. Also, the values for the mortality at 500 ppm (with Myzus persicae (aphids); in [8]; in [9]) were 50 to 79%, < 50% and < 50%, respectively.
As for `CCC(C)(C)c1ncc([C@H](C(=O)O[C@H](C)c2cccc(Oc3ccccc3)n2)C(C)(C)C)cn1` (racemic) [Compound 57, (RS)-1-(6-phenoxypyrid-2-yl)ethyl (RS)-2-[2-(1,1-dimethylpropyl)pyrimidin-5-yl]-3,3dimethylbutanoate], the pest or weed control at 500 ppm in assay [1] lay in the range of 80 to 100%. Besides, the mortality at 500 ppm is 80 to 100% in assay [2]; < 50% in assay [3]; 80 to 100% in assay [4]; 80 to 100% in assay [5]; 80 to 100% in assay [6]; < 50% in [7]. Besides, the mortality at 500 ppm in the assay with Myzus persicae (aphids) was 80 to 100%; in assay [8] it was < 50%; in [9], 80 to 100%.
Regarding `CC(C)(C)c1ncc(C(C(=O)OCc2c(F)c(F)c(CO)c(F)c2F)C(C)(C)C)cn1` (racemic) [Compound 164, 4-(hydroxymethyl)-2,3,5,6-tetrafluorobenzyl (RS)-2-[2-(1,1-dimethylethyl)pyrimidin-5-yl]-3,3-dimethylbutanoate], the pest or weed control at 500 ppm in assay [1] was 80 to 100%. The mortality at 500 ppm in assay [2] is < 50%; in assay [3], < 50%; in assay [4] it was < 50%; in assay [5], 80 to 100%; in [6] it was 80 to 100%; in assay [7], < 50%. Further, the results for the mortality at 500 ppm (in the assay on Myzus persicae (aphids); in assay [8]; in [9]) were 50 to 79%, < 50% and 50 to 79%, respectively.
As to `CCOc1c(F)c(COC)c(F)c(F)c1COC(=O)C(c1cnc(C(C)(C)C)nc1)C(C)(C)C` (racemic) [Compound 185, 2,3,5-trifluoro-6-ethoxy-4-(methoxymethyl)benzyl (RS)-2-[2-(1,1-dimethylethyl)pyrimidin-5-yl]-3,3-dimethylbutanoate], the pest or weed control at 500 ppm in assay [1] is 80 to 100%. The mortality at 500 ppm in assay [2] was 80 to 100%; in assay [3], < 50%; in [4], 50 to 79%; in assay [5], 80 to 100%; in assay [6], 80 to 100%; in assay [7], < 50%. Besides, the mortality at 500 ppm is 80 to 100% in the assay with Myzus persicae (aphids), < 50% in assay [8] and 80 to 100% in assay [9].
Take `C=C(C)C(C(=O)OCc1c(F)c(F)c(COC)c(F)c1F)c1cnc(C(C)(C)C)nc1` (racemic) [Compound 202, 2,3,5,6-tetrafluoro-4-(methoxymethyl)benzyl (RS)-2-[2-(1,1-dimethylethyl)pyrimidin-5-yl]-3-methylbut-3-enoate]: the pest or weed control at 500 ppm in assay [1] lay in the range of 80 to 100%. In addition, the mortality at 500 ppm was 80 to 100% in assay [2]; < 50% in assay [3]; < 50% in [4]; 80 to 100% in assay [5]; 80 to 100% in [6]; < 50% in assay [7]. Also, the results for the mortality at 500 ppm (in the assay on Myzus persicae (aphids); in assay [8]; in [9]) were 80 to 100%, < 50% and 50 to 79%, respectively.
